8 compounds from patent publication US10670605B2, “Cysteine reactive probes and uses thereof” (The Scripps Research Institute, priority 2015, dated 2020) can be followed below.

Each structure is given as a SMILES string.

Assay in all cases: Competitive isoTOP-ABPP in situ (fragment-treated cells)
Holding throughout (format): cell-based

Experiment [1] deals with cysteines in MDA-MB-231 and Ramos cells (Homo sapiens, UniProt O60825). As to conditions: 200 μM, insitu.
Experiment [2] addresses cysteines in MDA-MB-231 and Ramos cells (Homo sapiens, UniProt P27708). Particulars: 200 μM, insitu; for isoTOP-ABPP reactivity P27708_C73 CAD: 231.
The target in experiment [3] is cysteines in MDA-MB-231 and Ramos cells (Homo sapiens, UniProt Q15118).
cysteines in MDA-MB-231 and Ramos cells (Homo sapiens, UniProt Q15118), sequence (Q15118 29-436): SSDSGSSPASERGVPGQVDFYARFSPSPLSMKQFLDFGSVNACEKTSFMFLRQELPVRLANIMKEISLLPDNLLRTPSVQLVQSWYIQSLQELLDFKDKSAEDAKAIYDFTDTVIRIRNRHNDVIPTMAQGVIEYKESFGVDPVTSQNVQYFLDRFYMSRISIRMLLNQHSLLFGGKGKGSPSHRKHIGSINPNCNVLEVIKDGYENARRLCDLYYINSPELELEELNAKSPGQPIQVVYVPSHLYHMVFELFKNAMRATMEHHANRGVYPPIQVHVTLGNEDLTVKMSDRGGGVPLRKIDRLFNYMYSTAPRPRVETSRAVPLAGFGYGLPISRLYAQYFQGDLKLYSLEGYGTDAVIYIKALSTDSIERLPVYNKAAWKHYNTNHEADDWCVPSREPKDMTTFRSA
For experiment [4], the target named is T1, cysteines in MDA-MB-231 and Ramos cells (Homo sapiens, UniProt Q9NTX5).
T1 sequence (Q9NTX5 1-307): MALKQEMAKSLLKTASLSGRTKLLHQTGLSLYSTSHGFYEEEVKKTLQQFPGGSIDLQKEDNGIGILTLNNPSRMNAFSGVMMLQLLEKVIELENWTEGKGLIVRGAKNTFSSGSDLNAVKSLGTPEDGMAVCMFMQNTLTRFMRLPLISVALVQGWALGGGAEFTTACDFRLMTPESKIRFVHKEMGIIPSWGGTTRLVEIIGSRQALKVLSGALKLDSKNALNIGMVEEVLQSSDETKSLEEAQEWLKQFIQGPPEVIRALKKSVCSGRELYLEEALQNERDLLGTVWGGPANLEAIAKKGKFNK

Experiment [5] concerns the target cysteines in MDA-MB-231 and Ramos cells (Homo sapiens, UniProt Q9Y676).
Experiment [6] deals with T2, cysteines in MDA-MB-231 and Ramos cells (Homo sapiens, UniProt Q15013).
T2 sequence (Q15013 1-274): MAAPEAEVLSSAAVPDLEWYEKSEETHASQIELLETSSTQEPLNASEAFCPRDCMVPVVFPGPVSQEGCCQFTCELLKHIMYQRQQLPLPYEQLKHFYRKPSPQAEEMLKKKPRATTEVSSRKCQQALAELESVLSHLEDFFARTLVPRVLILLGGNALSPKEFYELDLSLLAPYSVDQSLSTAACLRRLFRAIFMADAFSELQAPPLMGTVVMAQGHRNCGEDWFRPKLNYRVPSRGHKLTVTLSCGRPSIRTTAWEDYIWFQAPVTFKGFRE

The target of experiment [7] is T3, cysteines in MDA-MB-231 and Ramos cells (Homo sapiens, UniProt O14929).
T3 sequence (O14929 1-419): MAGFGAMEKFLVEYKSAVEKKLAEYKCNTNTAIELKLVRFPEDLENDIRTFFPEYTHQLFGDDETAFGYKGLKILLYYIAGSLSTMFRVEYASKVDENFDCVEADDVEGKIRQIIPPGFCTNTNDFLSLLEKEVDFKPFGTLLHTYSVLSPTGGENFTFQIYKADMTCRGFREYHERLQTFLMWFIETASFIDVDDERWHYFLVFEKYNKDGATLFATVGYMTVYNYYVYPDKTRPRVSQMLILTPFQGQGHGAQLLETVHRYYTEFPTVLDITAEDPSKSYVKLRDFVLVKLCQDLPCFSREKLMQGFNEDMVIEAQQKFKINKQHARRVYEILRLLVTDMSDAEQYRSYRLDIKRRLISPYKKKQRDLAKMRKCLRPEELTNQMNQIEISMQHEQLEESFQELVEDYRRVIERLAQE

Experiment [8] has as its target cysteines in MDA-MB-231 and Ramos cells (Homo sapiens, UniProt P49189). As to conditions: 200 μM, insitu.
Experiment [9] concerns the target T4, cysteines in MDA-MB-231 and Ramos cells (Homo sapiens, UniProt Q5TFE4).
T4 sequence (Q5TFE4 1-455): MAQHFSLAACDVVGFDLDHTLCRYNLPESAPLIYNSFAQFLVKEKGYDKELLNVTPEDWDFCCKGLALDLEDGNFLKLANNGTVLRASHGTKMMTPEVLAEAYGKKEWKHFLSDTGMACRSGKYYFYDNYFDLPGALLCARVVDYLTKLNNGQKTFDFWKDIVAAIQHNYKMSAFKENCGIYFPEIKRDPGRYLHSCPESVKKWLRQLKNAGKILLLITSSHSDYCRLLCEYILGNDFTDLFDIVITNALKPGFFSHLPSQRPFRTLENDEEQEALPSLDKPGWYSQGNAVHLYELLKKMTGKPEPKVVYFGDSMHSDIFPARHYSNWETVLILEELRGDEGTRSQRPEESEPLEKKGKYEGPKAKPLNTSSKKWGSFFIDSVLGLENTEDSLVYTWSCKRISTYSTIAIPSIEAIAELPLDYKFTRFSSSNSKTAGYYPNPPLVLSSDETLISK
As to conditions: 200 μM, insitu; for isoTOP-ABPP ratio, cysteine Q5TFE4_C119: ramos.

In experiment [10] the target is T5, cysteines in MDA-MB-231 and Ramos cells (Homo sapiens, UniProt Q86W42).
T5 sequence (Q86W42 1-341): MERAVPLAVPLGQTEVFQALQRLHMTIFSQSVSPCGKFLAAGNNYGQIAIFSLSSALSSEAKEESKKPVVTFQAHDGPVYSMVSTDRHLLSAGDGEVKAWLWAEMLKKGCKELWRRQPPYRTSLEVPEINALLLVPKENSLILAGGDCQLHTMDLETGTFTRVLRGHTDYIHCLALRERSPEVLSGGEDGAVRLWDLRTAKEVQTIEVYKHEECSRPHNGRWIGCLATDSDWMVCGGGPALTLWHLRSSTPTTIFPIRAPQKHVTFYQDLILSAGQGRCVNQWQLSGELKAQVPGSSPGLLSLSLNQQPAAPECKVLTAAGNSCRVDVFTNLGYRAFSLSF

cysteines in MDA-MB-231 and Ramos cells (Homo sapiens, UniProt O60825), sequence (O60825 whole entry): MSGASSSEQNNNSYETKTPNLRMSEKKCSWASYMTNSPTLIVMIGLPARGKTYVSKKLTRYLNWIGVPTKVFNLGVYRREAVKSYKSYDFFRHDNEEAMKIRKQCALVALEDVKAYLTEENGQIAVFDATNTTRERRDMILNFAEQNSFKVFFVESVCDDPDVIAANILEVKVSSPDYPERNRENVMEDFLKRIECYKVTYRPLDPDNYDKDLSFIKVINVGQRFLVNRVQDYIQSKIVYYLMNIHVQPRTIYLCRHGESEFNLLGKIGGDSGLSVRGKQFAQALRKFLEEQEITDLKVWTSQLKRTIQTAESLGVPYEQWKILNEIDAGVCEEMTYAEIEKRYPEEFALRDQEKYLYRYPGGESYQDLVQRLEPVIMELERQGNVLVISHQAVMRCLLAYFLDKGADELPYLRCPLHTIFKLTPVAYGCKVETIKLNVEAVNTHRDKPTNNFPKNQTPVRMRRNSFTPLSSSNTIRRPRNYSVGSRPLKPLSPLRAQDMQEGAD
cysteines in MDA-MB-231 and Ramos cells (Homo sapiens, UniProt P49189), sequence (P49189 whole entry): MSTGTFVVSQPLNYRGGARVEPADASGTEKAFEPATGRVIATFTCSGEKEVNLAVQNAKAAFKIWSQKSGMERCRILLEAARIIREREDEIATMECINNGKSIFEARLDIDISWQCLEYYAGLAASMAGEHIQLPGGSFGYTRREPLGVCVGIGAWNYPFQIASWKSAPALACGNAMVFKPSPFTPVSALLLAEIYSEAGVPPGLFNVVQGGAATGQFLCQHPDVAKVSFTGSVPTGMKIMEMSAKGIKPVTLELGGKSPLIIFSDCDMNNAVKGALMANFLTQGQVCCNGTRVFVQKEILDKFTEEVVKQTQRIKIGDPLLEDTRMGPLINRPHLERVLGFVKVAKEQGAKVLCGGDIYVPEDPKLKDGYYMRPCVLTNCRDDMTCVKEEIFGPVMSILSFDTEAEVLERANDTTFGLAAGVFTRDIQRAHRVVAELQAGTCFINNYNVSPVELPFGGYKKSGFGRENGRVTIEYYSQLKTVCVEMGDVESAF
cysteines in MDA-MB-231 and Ramos cells (Homo sapiens, UniProt P27708), sequence (P27708 whole entry): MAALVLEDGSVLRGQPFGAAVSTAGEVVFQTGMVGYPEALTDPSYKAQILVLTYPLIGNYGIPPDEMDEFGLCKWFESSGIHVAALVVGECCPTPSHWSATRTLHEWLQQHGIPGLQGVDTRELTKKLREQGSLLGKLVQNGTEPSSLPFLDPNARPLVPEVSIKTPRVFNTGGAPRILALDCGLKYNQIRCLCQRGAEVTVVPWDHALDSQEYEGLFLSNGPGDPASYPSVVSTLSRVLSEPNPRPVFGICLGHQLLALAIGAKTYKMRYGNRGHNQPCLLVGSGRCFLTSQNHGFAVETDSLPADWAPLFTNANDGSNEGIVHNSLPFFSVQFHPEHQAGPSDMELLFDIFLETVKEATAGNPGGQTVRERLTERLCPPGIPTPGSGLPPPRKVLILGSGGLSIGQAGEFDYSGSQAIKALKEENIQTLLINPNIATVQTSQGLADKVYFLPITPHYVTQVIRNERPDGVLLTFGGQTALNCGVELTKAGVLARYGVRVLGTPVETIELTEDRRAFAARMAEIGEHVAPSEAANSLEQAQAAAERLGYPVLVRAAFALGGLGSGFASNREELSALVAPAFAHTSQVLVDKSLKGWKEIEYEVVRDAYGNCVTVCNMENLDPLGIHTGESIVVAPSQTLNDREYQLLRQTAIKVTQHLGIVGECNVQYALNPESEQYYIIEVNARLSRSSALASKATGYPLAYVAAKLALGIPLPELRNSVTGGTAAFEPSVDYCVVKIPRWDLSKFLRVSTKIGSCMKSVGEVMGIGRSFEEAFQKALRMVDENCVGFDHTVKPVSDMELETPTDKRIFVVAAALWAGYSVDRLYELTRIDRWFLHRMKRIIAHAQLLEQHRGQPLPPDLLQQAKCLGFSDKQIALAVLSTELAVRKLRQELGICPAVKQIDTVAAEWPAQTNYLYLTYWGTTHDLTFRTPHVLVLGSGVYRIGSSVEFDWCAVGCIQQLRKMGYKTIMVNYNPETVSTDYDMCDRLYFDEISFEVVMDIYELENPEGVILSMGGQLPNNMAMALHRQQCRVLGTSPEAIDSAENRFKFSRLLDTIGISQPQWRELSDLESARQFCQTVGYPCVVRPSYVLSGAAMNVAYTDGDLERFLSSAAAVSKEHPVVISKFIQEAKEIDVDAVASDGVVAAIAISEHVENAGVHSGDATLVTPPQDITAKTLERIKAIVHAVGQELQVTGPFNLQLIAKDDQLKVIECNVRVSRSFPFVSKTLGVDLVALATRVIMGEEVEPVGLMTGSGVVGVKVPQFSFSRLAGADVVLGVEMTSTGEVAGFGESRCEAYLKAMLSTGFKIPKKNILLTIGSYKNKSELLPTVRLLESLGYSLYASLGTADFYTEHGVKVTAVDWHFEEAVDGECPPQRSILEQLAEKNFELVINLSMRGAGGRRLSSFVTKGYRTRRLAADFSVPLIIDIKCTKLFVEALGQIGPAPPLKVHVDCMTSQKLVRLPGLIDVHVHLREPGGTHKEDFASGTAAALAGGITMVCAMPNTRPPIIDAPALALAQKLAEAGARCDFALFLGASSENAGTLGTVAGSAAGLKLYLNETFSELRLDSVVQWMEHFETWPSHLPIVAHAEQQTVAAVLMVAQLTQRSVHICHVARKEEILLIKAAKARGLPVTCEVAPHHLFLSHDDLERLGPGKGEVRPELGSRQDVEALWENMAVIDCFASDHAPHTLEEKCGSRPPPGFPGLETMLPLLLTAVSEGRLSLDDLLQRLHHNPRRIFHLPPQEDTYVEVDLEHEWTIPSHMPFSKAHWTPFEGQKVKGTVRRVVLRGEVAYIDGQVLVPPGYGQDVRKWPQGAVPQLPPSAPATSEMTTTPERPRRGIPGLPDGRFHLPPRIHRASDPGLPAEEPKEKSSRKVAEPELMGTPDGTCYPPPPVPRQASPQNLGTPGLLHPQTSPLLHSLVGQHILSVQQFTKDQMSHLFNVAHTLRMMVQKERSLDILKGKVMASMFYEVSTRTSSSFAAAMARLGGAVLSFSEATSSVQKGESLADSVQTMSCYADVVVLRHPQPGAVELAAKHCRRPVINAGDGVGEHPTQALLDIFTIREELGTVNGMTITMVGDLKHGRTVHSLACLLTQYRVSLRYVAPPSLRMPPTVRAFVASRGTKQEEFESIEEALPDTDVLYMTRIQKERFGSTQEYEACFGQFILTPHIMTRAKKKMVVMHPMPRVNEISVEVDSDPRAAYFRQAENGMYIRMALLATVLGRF

In the case of `COc1ccc2c(c1)CCCN2C(=O)CCl` [compound 2], the “isoTOP-ABPP reactivity O60825_C158 PFKFB2” value in experiment [1] (231) stood at 0.7. For the same compound, in [2], the “isoTOP-ABPP reactivity P27708_C73 CAD” value is reported as 3.1. The “isoTOP-ABPP reactivity Q15118_C71 PDK1” value in [3] (200 μM, insitu, 231) amounted to 20.0. The “isoTOP-ABPP reactivity Q9NTX5_C133 ECHDC1” value in [4] (200 μM, insitu, 231) was found to be 1.5. Also, the “isoTOP-ABPP reactivity Q9Y676_C128 MRPS18B” value in experiment [5] (200 μM, insitu, 231) is given as 10.2.
Regarding `COc1ccc(C2CC(c3cccs3)=NN2C(=O)CCl)cc1` (stereo not shown) [compound 4], in experiment [6] (100 μM in situ 231), the “isoTOP-ABPP reactivity Q15013_C124 MAD2L1BP” value is 13.0. The “isoTOP-ABPP reactivity Q15118_C71 PDK1” value in experiment [3] (100 μM in situ 231) turned out to be 20.0. Besides, in experiment [4] (100 μM in situ 231), the “isoTOP-ABPP reactivity Q9NTX5_C133 ECHDC1” value was found to be 1.7. Also, the “isoTOP-ABPP reactivity Q9Y676_C128 MRPS18B” value in experiment [5] (100 μM in situ 231) worked out at 2.3.
With `COc1cc2c(cc1OC)CN(C(=O)CCl)CC2` [compound 8], the “isoTOP-ABPP reactivity P27708_C73 CAD” value in experiment [2] stood at 20.0. In addition, the “isoTOP-ABPP reactivity Q15013_C124 MAD2L1BP” value in experiment [6] (200 μM, insitu, 231) was found to be 5.4. Further, the “isoTOP-ABPP reactivity Q15118_C71 PDK1” value in experiment [3] (200 μM, insitu, 231) came out at 20.0. In experiment [4] (200 μM, insitu, 231), the “isoTOP-ABPP reactivity Q9NTX5_C133 ECHDC1” value was 2.0. Also, the “isoTOP-ABPP reactivity Q9Y676_C128 MRPS18B” value in [5] (200 μM, insitu, 231) came to 1.0.
In the case of `O=C(CCl)N1CCC(Cc2ccccc2)CC1` [compound 9], in [7] (200 μM, insitu, 231), the “isoTOP-ABPP reactivity O14929_C101 HAT1” value is reported as 9.0. The “isoTOP-ABPP reactivity P49189_C288 ALDH9A1” value in experiment [8] (231) came to 20.0. Besides, in experiment [9] (231), the “isoTOP-ABPP reactivity Q5TFE4_C119 NT5DC1” value came to 20.0. In experiment [10] (200 μM, insitu, 231), the “isoTOP-ABPP reactivity Q86W42_C35 THOC6” value stood at 20.0.
Take `O=C(CCl)N1CCN(S(=O)(=O)c2ccccc2F)CC1` [compound 10]: the “isoTOP-ABPP ratio O14929_C101” value in experiment [7] (200 μM, insitu, 231) is reported as 20.0. Besides, the entries for the “isoTOP-ABPP ratio O60825_C158” value in experiment [1] (231) and in experiment [1] (ramos) were 0.7 and 1.2, respectively. In addition, the “isoTOP-ABPP ratio P49189_C288” value in experiment [8] (231) was 20.0. For the same compound, the “isoTOP-ABPP ratio Q15118_C71” value in experiment [3] (200 μM, insitu, 231) stood at 18.0; in experiment [3] (200 μM, insitu, ramos), 2.7. Besides, the “isoTOP-ABPP ratio, cysteine Q5TFE4_C119” value in experiment [9] was 20.0. For the same compound, the “isoTOP-ABPP ratio Q9NTX5_C133” value in experiment [4] (200 μM, insitu, 231) stood at 1.6. Besides, in experiment [5] (200 μM, insitu, 231), the “isoTOP-ABPP ratio Q9Y676_C128” value came out at 2.9.
Take `Cn1cc(S(=O)(=O)N2CCOCC2)cc1C(=O)NC(=O)CCl` [compound 11]: the “isoTOP-ABPP ratio O14929_C101” value in [7] (100 μM in situ 231) is listed as 0.8. Moreover, the “isoTOP-ABPP ratio, cysteine Q15013_C124” value in experiment [6] (100 μM in situ 231) came to 1.0. Further, the “isoTOP-ABPP ratio Q15118_C71” value in [3] (100 μM in situ 231) is recorded as 0.6. For the same compound, the “isoTOP-ABPP ratio Q86W42_C35” value in experiment [10] (100 μM in situ 231) stood at 1.3. Moreover, the “isoTOP-ABPP ratio Q9NTX5_C133” value in experiment [4] (100 μM in situ 231) stood at 1.0. Moreover, the “isoTOP-ABPP ratio Q9Y676_C128” value in experiment [5] (100 μM in situ 231) turned out to be 0.8.
`O=C(CCl)NC(=O)NC12CC3CC(CC(C3)C1)C2` [compound 12]: the “isoTOP-ABPP ratio O14929_C101” value in experiment [7] (200 μM, insitu, 231) is listed as 20.0. In experiment [1] (231), the “isoTOP-ABPP ratio O60825_C158” value turned out to be 0.8. The “isoTOP-ABPP ratio P49189_C288” value in experiment [8] (231) is on record as 1.8. Besides, the “isoTOP-ABPP ratio Q9NTX5_C133” value in experiment [4] (200 μM, insitu, 231) is 1.2. Also, in [5] (200 μM, insitu, 231), the “isoTOP-ABPP ratio Q9Y676_C128” value amounted to 1.4.
Take `O=C(CCl)NCCc1c[nH]c2ccccc12` [compound 13]: the “isoTOP-ABPP ratio O14929_C101” value turned out to be 0.9 in [7] (200 μM, insitu, 231) and 1.2 in experiment [7] (200 μM, insitu, ramos). Besides, the “isoTOP-ABPP ratio O60825_C158” value in experiment [1] (ramos) is on record as 0.9. Further, in experiment [2] (ramos), the “isoTOP-ABPP ratio, cysteine P27708_C73” value was 5.0. The “isoTOP-ABPP ratio P49189_C288” value in experiment [8] (ramos) was 12.0. For the same compound, in [3] (200 μM, insitu, 231), the “isoTOP-ABPP ratio Q15118_C71” value came to 1.6. In [9], the “isoTOP-ABPP ratio, cysteine Q5TFE4_C119” value is 1.7. Also, the “isoTOP-ABPP ratio Q9NTX5_C133” value in experiment [4] (200 μM, insitu, 231) amounted to 1.1.
